Test results: article PMC9995496, “A screen for MeCP2-TBL1 interaction inhibitors using a luminescence-based assay” (Scientific Reports, 2023)
Counter-ions that a name gives are not always drawn. Bridge positions count the residues as written; N and C are the ends. Square brackets hold non-standard residues; d marks the D form. Peptide text beside a SMILES is read from it. hArg = N=C(N)NCCCC[C@H](N)C(=O)O; Mpa = O=C(O)CCS

system: PRKACA-PRKAR2A interaction (SmBiT-PRKACA / LgBiT-PRKAR2A), protein kinase A; design: NanoLuc complementation counter-screen in cell extract, PRKACA with PRKAR2A, loss of luminescence, detects NanoLuc interference; settings: 0.5 h, 20 µM; inhibitor

Compound | Inh (PKA)
CC(C)(O)CNc1nc(Nc2ccnc(C(F)(F)F)c2)nc(-c2cccc(C(F)(F)F)n2)n1 [UM0139434:02, AG-221 (Enasidenib)] | 31.79
CC[C@@H]1/C=C(\C)C[C@H](C)C[C@H](OC)[C@H]2O[C@@](O)(C(=O)C(=O)N3CCCC[C@H]3C(=O)O[C@H](/C(C)=C/[C@@H]3CC[C@@H](O)[C@H](OC)C3)[C@H](C)[C@@H](O)CC1=O)[C@H](C)C[C@@H]2OC [UM0141519:01, Ascomycin(FK 520)] | 13.3
O=C(Oc1ccc([N+](=O)[O-])cc1)N1CCC(C(O)(c2ccc3c(c2)OCO3)c2ccc3c(c2)OCO3)CC1 [UM0142396:01, JZL184] | 16.72%

same assay, conditions: counter-screen for NanoLuc interference, 0.5 h, 20 µM, inhibitor, Inh (PKA)

Compound | Inh (PKA) [%]
C[C@@H]1CCN(C(=O)CC#N)C[C@@H]1N(C)c1ncnc2[nH]ccc12 [UM0141728:01, Tofacitinib (CP-690550) Citrate] | -4.37
O=C(Nc1ccc2[nH]nc(-c3ccncc3)c2c1)[C@@H]1CCN(CC(=O)N2CCN(c3ccc(-c4ncccn4)cc3)CC2)C1 [UM0142677:01, SCH772984 HCl] | 18.36
CCCc1nn(C)c2c(=O)[nH]c(-c3cc(S(=O)(=O)N4CCN(C)CC4)ccc3OCC)nc12 [UM0141781:01, Sildenafil Citrate] | 4.187

same assay, conditions: counter-screen for NanoLuc interference; 0.5 h, 20 µM; inhibitor

Compound | Inh (PKA) [%]
Cc1cc([N+](=O)[O-])ccc1NS(=O)(=O)c1cc(Cl)ccc1Cl [UM0141551:01, FH535] | 77.24
O=C(O)CC[C@H]1CC[C@@](c2cc(F)ccc2F)(S(=O)(=O)c2ccc(Cl)cc2)CC1 [UM0141661:01, MK-0752] | 5.084
CCOC(=O)C1=C(N)Oc2ccc(Br)cc2[C@H]1[C@H](C#N)C(=O)OCC [UM0141926:01, HA14-1] | 18.52
O=c1oc2c(O)c(O)cc3c(=O)oc4c(O)c(O)cc1c4c23 [UM0119370:03, Ellagic acid] | 2.639
CNC(=O)c1ccc2cc([C@@]3(O)CCn4cncc43)ccc2c1 [UM0141785:01, TAK-700 (Orteronel)] | 0.0216
N=C(N)NCCCC[C@@H]1NC(=O)CCSSC[C@@H](C(N)=O)NC(=O)[C@@H]2CCCN2C(=O)[C@H](Cc2c[nH]c3ccccc23)NC(=O)[C@H](CC(=O)O)NC(=O)CNC1=O [UM0142520:01, Eptifibatide] ([Mpa][hArg]GDWPC-NH2; disulfide 1-7) | -0.06094
CC(=O)O/N=C1/C(c2c(O)[nH]c3cc(Br)ccc23)=Nc2ccccc21 [UM0142638:01, BIO-acetoxime] | 40.08
O=C(O)[C@]1(Cc2cccc(Nc3nccs3)n2)CC[C@@H](Oc2cccc(Cl)c2F)CC1 [UM0141717:01, MK-5108 (VX-689)] | 44.53
Cc1ccc(S(=O)(=O)OCC(=O)Nc2ccc(C(=O)O)c(O)c2)cc1 [UM0142002:01, NSC 74859] | 1.866
N#Cc1c(-c2ccccc2)cc(-c2cc(Br)ccc2O)[nH]c1=O [UM0141854:01, TCS PIM-1 1] | 47.09
CCN[C@@H]1C[C@H](N)[C@@H](O[C@H]2OC(CN)=CC[C@H]2N)[C@H](O)[C@H]1O[C@H]1OC[C@](C)(O)[C@H](NC)[C@H]1O [UM0142372:01, Netilmicin Sulfate] | -0.6216
O=C(c1cccc(Cl)c1F)N1CCN(Cc2cccc(Nc3nccs3)n2)CC1 [UM0142137:01, MK-8745] | 20.15
CCOc1cc(N2CCC(O)CC2)ccc1Nc1ncc2c(n1)N(C)c1ccccc1C(=O)N2C [UM0141652:01, XMD8-92] | 14.04
Cc1cc2c(C(C)C)c(O)c(O)c(C=O)c2c(O)c1-c1c(C)cc2c(C(C)C)c(O)c(O)c(C=O)c2c1O [UM0118855:03, Gossypol] | 56.08
CNC(=O)[C@H](Cc1ccccc1)NC(=O)[C@H](CC(C)C)[C@H](CSc1cccs1)C(=O)NO [UM0141470:01, Batimastat (BB-94)] | 1.977
OCCn1cc(-c2ccc3c(c2)CC/C3=N\O)c(-c2ccncc2)n1 [UM0141866:01, GDC-0879] | 3.817
CNC(=O)Nc1ccc(-c2nc(N3CC4CCC(C3)O4)c3cnn(C4CCC5(CC4)OCCO5)c3n2)cc1 [UM0142336:01, WYE-125132 (WYE-132)] | 31.62
CO[C@H]1C[C@@H]2CC[C@@H](C)[C@@](O)(O2)C(=O)C(=O)N2CCCC[C@H]2C(=O)O[C@H]([C@H](C)C[C@@H]2CC[C@@H](OCCO)[C@H](OC)C2)CC(=O)[C@H](C)/C=C(\C)[C@@H](O)[C@@H](OC)C(=O)[C@H](C)C[C@H](C)/C=C/C=C/C=C/1C [UM0141927:01, Everolimus (RAD001)] | 0.7572
CC[C@H](c1ccc(O)cc1)[C@@H](CC)c1ccc(O)cc1 [UM0142283:01, Hexestrol] | 49.6
Cc1ccc(NC(=O)C2(c3ccc4c(c3)OC(F)(F)O4)CC2)nc1-c1cccc(C(=O)O)c1 [UM0142010:01, VX-809] | 21.09
COc1cc(OCc2cccc(-c3ccccc3)c2C)cc(OC)c1CN1CCCC[C@H]1C(=O)O [UM0142755:01, PD-1/PD-L1 inhibitor 1] | 7.667
Cc1n[nH]c2ccc(-c3cncc(OC[C@@H](N)Cc4c[nH]c5ccccc45)c3)cc12 [UM0141510:01, A-443654] | 34.74
CC(C)(C)C(O)/C=C/c1ccc2c(c1)OCO2 (centres unmarked) [UM0142121:01, Stiripentol] | 12.44
NC1(Cc2ccc(Cl)cc2)CCN(c2ncnc3[nH]ccc23)CC1 [UM0142095:01, CCT128930] | 38.25
C[C@]12CC[C@@H]3c4ccc(OC(=O)c5ccccc5)cc4CC[C@H]3[C@@H]1CC[C@@H]2O [UM0142395:01, Estradiol Benzoate] | 19.47
Cn1cnc2c(F)c(Nc3ccc(Br)cc3Cl)c(C(=O)NOCCO)cc21 [UM0130968:04, AZD6244 (Selumetinib)] | 16.5
CCCCc1nc2cc(/C=C/C(=O)NO)ccc2n1CCN(CC)CC [UM0139427:02, Pracinostat (SB939)] | 1.482

Compound | Inh (PKA) [%]
CC[C@H]1OC(=O)[C@H](C)[C@@H](O[C@H]2C[C@@](C)(OC)[C@@H](O)[C@H](C)O2)[C@H](C)[C@@H](O[C@@H]2O[C@H](C)C[C@H](N(C)C)[C@H]2O)[C@](C)(OC)C[C@@H](C)C(=O)[C@H](C)[C@@H](O)[C@]1(C)O [UM0121462:03, Clarithromycin] | 0.9252
Oc1cc(O)c(Cl)cn1 [UM0141798:01, Gimeracil] | 0.03154
O=S(=O)(c1cccc2c(O)nccc12)N1CCCNCC1 [UM0141561:01, Hydroxyfasudil hydrochloride] | 27.19
Oc1ccc(/C=C/c2cc(O)cc(O)c2)cc1 [UM0128556:03, Resveratrol] | 25.41
CC[C@@H](N)CNc1ccnc(-c2cc(-c3cnn(C)c3)ccc2O)n1 [UM0142114:01, CRT 0066101] | 18.6
CCc1nc(N)nc(N)c1-c1ccc(Cl)cc1 [UM0118442:03, Pyrimethamine] | 0.5127
C/C(=C\c1csc(C)n1)[C@@H]1C[C@@H]2O[C@]2(C)CCC[C@H](C)[C@H](O)[C@@H](C)C(=O)C(C)(C)[C@@H](O)CC(=O)N1 [UM0141566:01, Ixabepilone] | 1.607
CNC(=O)c1cc(Oc2ccc(NC(=O)Nc3cc(C(C)(C)C)nn3-c3ccc4ncccc4c3)c(F)c2)ccn1 [UM0142239:01, DCC-2036 (Rebastinib)] | 12.64
C=CC[C@]1(O)CC[C@H]2[C@@H]3CCC4=CC(=O)CCC4=C3C=C[C@@]21C [UM0142281:01, Altrenogest] | 7.202
CCC(=O)O[C@]1(C(=O)CCl)[C@@H](C)C[C@H]2[C@@H]3C[C@H](F)C4=CC(=O)C=C[C@]4(C)[C@@]3(F)[C@@H](O)C[C@@]21C [UM0142361:01, Halobetasol Propionate] | 7.218
CCOC(=O)c1ccc(N2NC(=O)/C(=C/c3ccc([N+](=O)[O-])o3)C2=O)cc1 [UM0142276:01, PYR-41] | 36.3
CN(C)C/C=C/C(=O)Nc1cccc(C(=O)Nc2cccc(Nc3ncc(Cl)c(-c4c[nH]c5ccccc45)n3)c2)c1 [UM0142128:01, THZ2] | 74.86
CNCC(O)c1ccc(O)cc1 (centres unmarked) [UM0142702:01, Synephrine] | 1.654
CCOC(=O)c1ccc(C#Cc2ccc3c(c2)C(C)(C)CCS3)nc1 [UM0141904:01, Tazarotene] | 17.58
Cc1ccc(C(=O)Nc2ccc(Oc3cc4cnn(C)c4cc3-c3cn[nH]c3)c(F)c2)c(=O)n1-c1ccc(F)cc1 [UM0141582:01, LY2801653] | 33.02
Cn1cncc1[C@@](N)(c1ccc(Cl)cc1)c1ccc2c(c1)c(-c1cccc(Cl)c1)cc(=O)n2C [UM0135485:03, Tipifarnib (Zarnestra)] | 47.09
COCCOc1ccc2c(c1)ncn2-c1ccc2cccc(N3CCC(N)CC3)c2n1 [UM0142429:01, CP-673451] | 21.57
CC(C(=O)O)c1ccc(-c2ccccc2)c(F)c1 (centres unmarked) [UM0142040:01, Flurbiprofen] | 28.61
NC[C@H]1CC[C@H](C(=O)O)CC1 [UM0142384:01, Tranexamic Acid] | 2.588
Nc1ncnc2c1C(=O)N(c1ccc([C@H]3CC[C@H](CC(=O)O)CC3)cc1)CCO2 [UM0141824:01, PF-04620110] | 1.569
Cc1nn(-c2ccccc2)c(C)c1/C=N/N1CCN(Cc2ccccc2)CC1 [UM0142111:01, SANT-1] | 15.15
CNC(=O)c1ccc(-c2cnc3ncc(Cc4ccc5ncccc5c4)n3n2)cc1F [UM0142048:01, INCB28060] | 6.016
Cc1ccc2nc(N)[nH]c(=O)c2c1Sc1ccncc1 [UM0142685:01, Nolatrexed (AG-337)] | 7.912
N[C@@H](CCC(=O)N[C@@H](CS)C(=O)NCC(=O)O)C(=O)O [UM0120654:03, L-Glutathione Reduced] | -0.7865
O=C(O)CCCc1ccccc1 [UM0141598:03, Sodium Phenylbutyrate] | 1.56
O=S(=O)(O)c1ccc2cc(N=Nc3cc(S(=O)(=O)O)c4cccnc4c3O)ccc2c1 [UM0141859:01, NSC 87877] | 48.34
